The species entered for assay [1] is Mus musculus. The assay can be described thus: Optimal percentage of increased life span [(100 x MST treated mice / MST control mice) -100]; f=Not Attained. The class given is functional, organism-based.
For assay [2], the system named is Mus musculus. The assay can be described thus: Compound is evaluated for antitumor activity against intraperitoneally implanted B16 melanoma cells in mice median survival time including day-60 survivors (MST). The class given is functional.
Assay [3] has as its system Mus musculus. The assay can be described thus: Compound is evaluated for maximally tolerated dose (MTD) against intraperitoneally implanted B16 melanoma cells in mice. It counts as functional.
For assay [4], the species on record is Mus musculus. The assay can be described thus: optimal percentage of increased life span [(100 x MST treated mice / MST control mice) -100]. The class given is functional.
Assay [5] has as its system Mus musculus. The assay can be described thus: Number of day-60 survivors at the optimal dose of 10 mg/kg; 7/10. It counts as functional.
Assay [6] relates to Mus musculus. The assay can be described thus: Compound is evaluated for antitumor activity against intraperitoneally implanted B16 melanoma cells in mice median survival time including day-60 survivors (MST); f=Not attained. It counts as functional, organism-based.
Assay [7] has as its system Mus musculus. The assay can be described thus: Median survival time including day-60 survivors (MST), after post implantation at the optimal dose of 10 mg/kg; d=Not attained. It counts as functional, organism-based. Also on record: dose 10 mg/kg.
Assay [8] is filed under the species Mus musculus. The assay can be described thus: Number of day-60 survivors; 5/10. The class given is functional.
The species named for assay [9] is Mus musculus. The assay can be described thus: Number of day-60 survivors; 4/10. The class given is functional.
For assay [10], the system named is Mus musculus. The assay can be described thus: Optimal percentage of increased life span [(100 x MST treated mice / MST control mice) -100] at the optimal dose of 10 mg/kg; d=Not Attained. The class given is functional, organism-based. On the set-up: dose 10 mg/kg.
Assay [11] deals with Mus musculus. The assay can be described thus: Number of day-60 survivors at the optimal dose of 8 mg/kg; 8/10. It counts as functional.
Assay [12] concerns Mus musculus. The assay can be described thus: median survival time including day-60 survivors (MST), after post implantation at the optimal dose of 8 mg/kg; d=Not Attained. The class given is functional, organism-based. Also on record: dose 8 mg/kg.
Assay [13] relates to Mus musculus. The assay can be described thus: Optimal percentage of increased life span [(100 x MST treated mice / MST control mice) -100] at the optimal dose of 8 mg/kg; d=Not Attained. The class given is functional, organism-based. On the set-up: dose 8 mg/kg.
Assay [14] is filed under the species Mus musculus. The assay can be described thus: Number of day-60 survivors; 3/10. The class given is functional.
For assay [15], the species on record is Mus musculus. The assay can be described thus: (§1) Optimal percentage of increased life span [(100 x MST treated mice / MST control mice) -100]. It counts as functional.
Assay [16] deals with Mus musculus. The assay can be described thus: Median survival time including day-60 survivors (MST), after post implantation at the optimal dose of 20 mg/kg; d=Not attained. It counts as functional, organism-based. Also on record: dose 20 mg/kg.
The species entered for assay [17] is Mus musculus. The assay can be described thus: Number of day-60 survivors; 0/10. The class given is functional.
The subject of assay [18] is Mus musculus. The assay can be described thus: Optimal percentage of increased life span [(100 x MST treated mice / MST control mice) -100] at the optimal dose of 20 mg/kg; d=Not Attained. The class given is functional, organism-based. Also on record: dose 20 mg/kg.
Assay [19] deals with Mus musculus. The assay can be described thus: Number of day-60 survivors at the optimal dose of 20 mg/kg; 6/10. The class given is functional.
For assay [20], the system named is Mus musculus. The assay can be described thus: Number of day-60 survivors at the optimal dose of 5 mg/kg; 3/10. The class given is functional.
Assay [21] deals with Mus musculus. The assay can be described thus: Median survival time including day-60 survivors (MST), after post implantation at the optimal dose of 5 mg/kg. It counts as functional.
The subject of assay [22] is Mus musculus. The assay can be described thus: Optimal percentage of increased life span [(100 x MST treated mice / MST control mice) -100] at the optimal dose of 5 mg/kg. It counts as functional.
Assay [23] deals with Mus musculus. The assay can be described thus: Optimal percentage of increased life span [(100 x MST treated mice / MST control mice) -100] at the optimal dose of 32 mg/kg. It counts as functional.
In assay [24] the test system is Mus musculus. The assay can be described thus: Number of day-60 survivors at the optimal dose of 32 mg/kg; 1/10. It counts as functional.
Assay [25] deals with Mus musculus. The assay can be described thus: median survival time including day-60 survivors (MST), after post implantation at the optimal dose of 32 mg/kg. The class given is functional.
The test system of assay [26] is Mus musculus. The assay can be described thus: Optimal percentage of increased life span [(100 x MST treated mice / MST control mice) -100] at the optimal dose of 6.25 mg/kg; d=Not Attained. The class given is functional, organism-based. On the set-up: dose 6.25 mg/kg.
The subject of assay [27] is Mus musculus. The assay can be described thus: Median survival time including day-60 survivors (MST), after post implantation at the optimal dose of 6.25 mg/kg; d=Not attained. The class given is functional, organism-based. On the set-up: dose 6.25 mg/kg.
In assay [28] the test system is Mus musculus. The assay can be described thus: Number of day-60 survivors at the optimal dose of 6.25 mg/kg; 9/10. The class given is functional.
Assay [29] deals with Mus musculus. The assay can be described thus: median survival time including day-60 survivors (MST), after post implantation at the optimal dose of 5 mg/kg. The class given is functional.
Assay [30] is filed under the species Mus musculus. The assay can be described thus: Number of day-60 survivors; 2/10. The class given is functional.
Assay [31] is filed under the species Mus musculus. The assay is described as §1. It counts as functional. The source holds these as a separate data set.
Assay [32] relates to Mus musculus. The assay can be described thus: Number of day-60 survivors at the optimal dose of 20 mg/kg; 9/10. It counts as functional.
For assay [33], the species on record is Mus musculus. The assay can be described thus: Number of day-60 survivors; 1/10. The class given is functional.
For assay [34], the system named is Mus musculus. The assay can be described thus: median survival time including day-60 survivors (MST), after post implantation at the optimal dose of 20 mg/kg. It counts as functional.
Assay [35] concerns Mus musculus. The assay can be described thus: Number of day-60 survivors at the optimal dose of 20 mg/kg; 3/10. The class given is functional.
In assay [36] the test system is Mus musculus. The assay can be described thus: Optimal percentage of increased life span [(100 x MST treated mice / MST control mice) -100] at the optimal dose of 20 mg/kg. It counts as functional.

Data on ten molecules can be found in ChEMBL document CHEMBL1122514, “Studies on synthesis and anticancer activity of selected N-(2-fluoroethyl)-N-nitrosoureas” (1984).

By ILS is commonly meant the gain in survival time of treated over control animals, in per cent. What is called MTD is the largest dose that counted as tolerated. The low end stands for a narrow tolerated range, the high end for a wide tolerated range.

Each structure is given as a SMILES string. Several values for one entry are separate records, joined by “and”; a condition that tells them apart may be missing. Equal values may be shown once.

For the molecule `O=NN(CCF)C(=O)NC1C(O)CCCC1O` (centres undefined), the ILS entry is “Not attained” in the assay listed under Mus musculus [1], 163% in the assay listed under Mus musculus [4] and “Not attained” with Mus musculus [10]. Besides, the MST with Mus musculus [2] is 57 days; in the assay on Mus musculus [6] it was “Not attained”; in the assay with Mus musculus [7], “Not attained”. The MTD in the assay on Mus musculus [3] was 60 mg/kg. In addition, the Survivors in the assay with Mus musculus [5] came to 7; in the assay filed under Mus musculus [8], 5; in the assay listed under Mus musculus [9], 4.
`O=NN(CCCl)C(=O)NC1CCC(=O)NC1=O` (centres undefined) gave a Survivors in the assay with Mus musculus [11] of 8. Moreover, in the assay on Mus musculus [12], the MST entry is “Not attained”. For the same molecule, the ILS entry with Mus musculus [13] was “Not attained”.
Take `O=NN(CCF)C(=O)NC1CCCCC1O` (centres undefined): the MST is 48 days and 35.8 days with Mus musculus [2]; “Not attained” in the assay on Mus musculus [16]. Besides, the Survivors in the assay filed under Mus musculus [14] was found to be 3; in the assay filed under Mus musculus [17] it was 0; in the assay on Mus musculus [19], 6. The ILS in the assay filed under Mus musculus [15] was 122% and 109%; with Mus musculus [18], “Not attained”. Moreover, in the assay on Mus musculus [3], the MTD stood at 60 mg/kg.
`O=NN(CCF)C(=O)NCCO`: the Survivors in the assay on Mus musculus [20] and in the assay listed under Mus musculus [14] was 3 in each case. Also, the MST in the assay on Mus musculus [2] was 50 days and 42.8 days; with Mus musculus [21], 45.8 days. In addition, the ILS in the assay listed under Mus musculus [15] amounted to 150%; in the assay listed under Mus musculus [4] it was 131%. For the same molecule, in the assay on Mus musculus [3], the MTD was 60 mg/kg. In addition, in the assay with Mus musculus [22], the ILS at 5 mg/kg stood at 138%.
In the assay with Mus musculus [23], `O=NN(CCCl)C(=O)NC1CCCCC1` [LOMUSTINE] had an ILS at 32 mg/kg of 66%. For the same molecule, the Survivors in the assay on Mus musculus [24] came to 1. For the same molecule, the MST in the assay with Mus musculus [25] was determined as 32 days.
For the molecule `O=NN(CCCl)C(=O)NCCO` [ELMUSTINE], in the assay on Mus musculus [26], the ILS entry is “Not attained”. In the assay with Mus musculus [27], the MST entry was “Not attained”. Moreover, the Survivors in the assay on Mus musculus [28] worked out at 9.
Take `O=NN(CCCl)C(=O)NC1C(O)CCCC1O` (centres undefined): the Survivors in the assay on Mus musculus [20] was found to be 3. Besides, in the assay with Mus musculus [29], the MST is 33.3 days. Further, the ILS at 5 mg/kg in the assay with Mus musculus [22] came out at 73%.
As for `O=NN(CCF)C(=O)NC1C(O)C(O)OC(CO)C1O` (centres undefined), the MST in the assay on Mus musculus [2] is 50 days and 36 days. Further, the values for the Survivors in the assay filed under Mus musculus [14] and in the assay filed under Mus musculus [30] were 3 and 2, respectively. In addition, the figures for the ILS in the assay filed under Mus musculus [15] and in the assay filed under Mus musculus [31] were 110% and 131%, respectively. Moreover, the MTD with Mus musculus [3] was determined as 60 mg/kg.
`O=NN(CCF)C(=O)NC1CCC(=O)NC1=O` (centres undefined): the MST in the assay with Mus musculus [2] was 45.3 days and 40.3 days; in the assay with Mus musculus [16], “Not attained”. In addition, the Survivors amounted to 3 in the assay filed under Mus musculus [14], 9 in the assay on Mus musculus [32] and 1 in the assay listed under Mus musculus [33]. Also, the ILS was 109% and 133% in the assay filed under Mus musculus [15]; “Not attained” with Mus musculus [18]. Also, in the assay with Mus musculus [3], the MTD amounted to 60 mg/kg.
On to `O=NN(CCF)C(=O)NC1CCCCC1`, for which the MST was 44 days with Mus musculus [34] and 37 days in the assay with Mus musculus [2]. In addition, the ILS in the assay filed under Mus musculus [15] is recorded as 71%. Further, the MTD in the assay on Mus musculus [3] amounted to 60 mg/kg. In addition, the Survivors in the assay with Mus musculus [35] is given as 3; in the assay filed under Mus musculus [33], 1. The ILS at 20 mg/kg in the assay with Mus musculus [36] is 129%.
